{
  "source": "paper PMC7544826",
  "about": "(Communications Biology, 2020)",
  "key": {"[1]": {"molecular_target": "T1, Notum (Homo sapiens, UniProt Q6P988, C330S)", "T1 sequence (Q6P988 81-451 C330S)": "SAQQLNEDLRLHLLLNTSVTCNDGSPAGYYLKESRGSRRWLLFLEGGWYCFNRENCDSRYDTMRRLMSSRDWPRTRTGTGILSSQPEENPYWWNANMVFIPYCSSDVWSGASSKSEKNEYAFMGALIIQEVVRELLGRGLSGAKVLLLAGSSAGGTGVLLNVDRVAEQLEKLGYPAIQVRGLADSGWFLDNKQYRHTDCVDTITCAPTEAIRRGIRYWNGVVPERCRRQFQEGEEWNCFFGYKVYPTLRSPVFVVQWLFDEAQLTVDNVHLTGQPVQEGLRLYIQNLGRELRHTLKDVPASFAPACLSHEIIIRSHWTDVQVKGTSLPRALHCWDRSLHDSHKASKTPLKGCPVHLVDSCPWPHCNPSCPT", "assay": "Notum activity assay with OPTS as substrate", "assay_type": "biochemical", "set-up": "The human Notum enzyme core comprising amino acids S81–T451 with a C330S mutation; made in house; dialyzed conditioned medium used without purification", "conditions": "result in words", "protocol": "OPTS is a common lipase substrate with an octanoyl lipid linked to a fluorescent moiety. It is not a natural Notum substrate; however, it can be used to quantify the enzymatic activity of purified Notum protein[23],[25],[28]. […] The fluorescent lipase substrate OPTS was dissolved in water at a concentration of 20 µM. […] The inhibition curves were fitted with a one-site model with GraphPad Prism 8 software."}, "[2]": {"molecular_target": "T1, Notum", "assay": "Thermal shift assay (SYPRO Orange) of Notum", "conditions": "compound 500 µM; for Thermoflour melting curve fluorescence of Notum: Fig 2c", "description": "Reference wells, i.e. solutions without compounds were used to compare the melting temperature (Tm). The experiments were performed in triplicate."}, "[3]": {"molecular_target": "T1, Notum", "assay": "SPR equilibrium binding to biotinylated Notum on streptavidin chip", "set-up": "The human Notum enzyme core comprising amino acids S81–T451 with a C330S mutation; made in house; dialyzed conditioned medium used without purification", "conditions": "result in words", "protocol": "The human Notum core sequence was cloned in a pHL-Avi3 vector[49] and co-transfected with the pDisplay_BirA-ER plasmid[50] into HEK293T cells with the media supplemented with 20 µM biotin. This procedure allows in vivo biotinylation to occur, and the dialyzed conditioned medium was directly used for SA sensor chip immobilization without protein purification. […] Approximately 2500 resonance units (RU) of the biotinylated Notum was coupled onto the chip. […] The response was plotted versus the concentration of the analytes and fitted by nonlinear regression to a one-site saturation binding model (GraphPad Prism 8)."}},
  "data": [
    {"compound": "Cn1c(=O)[nH]c2ncn(C)c2c1=O", "note": "[paraxanthine, 1,7-dimethylxanthine]", "values": [
      {"measurement": "Notum inhibitory effect in OPTS enzyme assay", "setting": "[1]", "value": "could not detect obvious Notum inhibitory effects"},
      {"measurement": "Thermoflour melting curve fluorescence of Notum", "setting": "[2]; Temperature 24.5", "value": 1987.07},
      {"measurement": "Thermoflour melting curve fluorescence of Notum", "setting": "[2]; Temperature 25.5", "value": 1782.57},
      {"measurement": "Thermoflour melting curve fluorescence of Notum", "setting": "[2]; Temperature 26.5", "value": 1579.35},
      {"measurement": "Thermoflour melting curve fluorescence of Notum", "setting": "[2]; Temperature 27.5", "value": 1384.26},
      {"measurement": "Thermoflour melting curve fluorescence of Notum", "setting": "[2]; Temperature 28.5", "value": 1239.77},
      {"measurement": "Thermoflour melting curve fluorescence of Notum", "setting": "[2]; Temperature 29.5", "value": 1129.04},
      {"measurement": "Thermoflour melting curve fluorescence of Notum", "setting": "[2]; Temperature 30.5", "value": 1031.12},
      {"measurement": "Thermoflour melting curve fluorescence of Notum", "setting": "[2]; Temperature 31.5", "value": 918.053},
      {"measurement": "Thermoflour melting curve fluorescence of Notum", "setting": "[2]; Temperature 32.5", "value": 770.537},
      {"measurement": "Thermoflour melting curve fluorescence of Notum", "setting": "[2]; Temperature 33.5", "value": 609.721},
      {"measurement": "Thermoflour melting curve fluorescence of Notum", "setting": "[2]; Temperature 34.5", "value": 426.953},
      {"measurement": "Thermoflour melting curve fluorescence of Notum", "setting": "[2]; Temperature 35.5", "value": 213.386},
      {"measurement": "Thermoflour melting curve fluorescence of Notum", "setting": "[2]; Temperature 36.5", "value": -34.2239},
      {"measurement": "Thermoflour melting curve fluorescence of Notum", "setting": "[2]; Temperature 37.5", "value": -296.182},
      {"measurement": "Thermoflour melting curve fluorescence of Notum", "setting": "[2]; Temperature 38.5", "value": -499.812},
      {"measurement": "Thermoflour melting curve fluorescence of Notum", "setting": "[2]; Temperature 39.5", "value": -637.629},
      {"measurement": "Thermoflour melting curve fluorescence of Notum", "setting": "[2]; Temperature 40.5", "value": -751.582},
      {"measurement": "Thermoflour melting curve fluorescence of Notum", "setting": "[2]; Temperature 41.5", "value": -837.247},
      {"measurement": "Thermoflour melting curve fluorescence of Notum", "setting": "[2]; Temperature 42.5", "value": -891.039},
      {"measurement": "Thermoflour melting curve fluorescence of Notum", "setting": "[2]; Temperature 43.5", "value": -901.613},
      {"measurement": "Thermoflour melting curve fluorescence of Notum", "setting": "[2]; Temperature 44.5", "value": -863.856},
      {"measurement": "Thermoflour melting curve fluorescence of Notum", "setting": "[2]; Temperature 45.5", "value": -795.543},
      {"measurement": "Thermoflour melting curve fluorescence of Notum", "setting": "[2]; Temperature 46.5", "value": -693.454},
      {"measurement": "Thermoflour melting curve fluorescence of Notum", "setting": "[2]; Temperature 47.5", "value": -545.549},
      {"measurement": "Thermoflour melting curve fluorescence of Notum", "setting": "[2]; Temperature 48.5", "value": -352.113},
      {"measurement": "Thermoflour melting curve fluorescence of Notum", "setting": "[2]; Temperature 49.5", "value": -114.575},
      {"measurement": "Thermoflour melting curve fluorescence of Notum", "setting": "[2]; Temperature 50.5", "value": 165.368},
      {"measurement": "Thermoflour melting curve fluorescence of Notum", "setting": "[2]; Temperature 51.5", "value": 475.15},
      {"measurement": "Thermoflour melting curve fluorescence of Notum", "setting": "[2]; Temperature 52.5", "value": 801.618},
      {"measurement": "Thermoflour melting curve fluorescence of Notum", "setting": "[2]; Temperature 53.5", "value": 1178.09},
      {"measurement": "Thermoflour melting curve fluorescence of Notum", "setting": "[2]; Temperature 54.5", "value": 1624.42},
      {"measurement": "Thermoflour melting curve fluorescence of Notum", "setting": "[2]; Temperature 55.5", "value": 2146.78},
      {"measurement": "Thermoflour melting curve fluorescence of Notum", "setting": "[2]; Temperature 56.5", "value": 2764.33},
      {"measurement": "Thermoflour melting curve fluorescence of Notum", "setting": "[2]; Temperature 57.5", "value": 3495.42},
      {"measurement": "Thermoflour melting curve fluorescence of Notum", "setting": "[2]; Temperature 58.5", "value": 4462.48},
      {"measurement": "Thermoflour melting curve fluorescence of Notum", "setting": "[2]; Temperature 59.5", "value": 5756.59},
      {"measurement": "Thermoflour melting curve fluorescence of Notum", "setting": "[2]; Temperature 60.5", "value": 7495.13},
      {"measurement": "Thermoflour melting curve fluorescence of Notum", "setting": "[2]; Temperature 61.5", "value": 9729.04},
      {"measurement": "Thermoflour melting curve fluorescence of Notum", "setting": "[2]; Temperature 62.5", "value": 12262.8},
      {"measurement": "Thermoflour melting curve fluorescence of Notum", "setting": "[2]; Temperature 63.5", "value": 14775.9},
      {"measurement": "Thermoflour melting curve fluorescence of Notum", "setting": "[2]; Temperature 64.5", "value": 17022.5},
      {"measurement": "Thermoflour melting curve fluorescence of Notum", "setting": "[2]; Temperature 65.5", "value": 18955.6},
      {"measurement": "Thermoflour melting curve fluorescence of Notum", "setting": "[2]; Temperature 66.5", "value": 20556.8},
      {"measurement": "Thermoflour melting curve fluorescence of Notum", "setting": "[2]; Temperature 67.5", "value": 21849.9},
      {"measurement": "Thermoflour melting curve fluorescence of Notum", "setting": "[2]; Temperature 68.5", "value": 22932.3},
      {"measurement": "Thermoflour melting curve fluorescence of Notum", "setting": "[2]; Temperature 69.5", "value": 23847.9},
      {"measurement": "Thermoflour melting curve fluorescence of Notum", "setting": "[2]; Temperature 70.5", "value": 24631},
      {"measurement": "Thermoflour melting curve fluorescence of Notum", "setting": "[2]; Temperature 71.5", "value": 25359.6},
      {"measurement": "Thermoflour melting curve fluorescence of Notum", "setting": "[2]; Temperature 72.5", "value": 25975.5},
      {"measurement": "Thermoflour melting curve fluorescence of Notum", "setting": "[2]; Temperature 73.5", "value": 26515.7},
      {"measurement": "Thermoflour melting curve fluorescence of Notum", "setting": "[2]; Temperature 74.5", "value": 27075.8},
      {"measurement": "Thermoflour melting curve fluorescence of Notum", "setting": "[2]; Temperature 75.5", "value": 27622.8},
      {"measurement": "Thermoflour melting curve fluorescence of Notum", "setting": "[2]; Temperature 76.5", "value": 28157.3},
      {"measurement": "Thermoflour melting curve fluorescence of Notum", "setting": "[2]; Temperature 77.5", "value": 28616.3},
      {"measurement": "Thermoflour melting curve fluorescence of Notum", "setting": "[2]; Temperature 78.5", "value": 29028.5},
      {"measurement": "Thermoflour melting curve fluorescence of Notum", "setting": "[2]; Temperature 79.5", "value": 29470.8},
      {"measurement": "Thermoflour melting curve fluorescence of Notum", "setting": "[2]; Temperature 80.5", "value": 29930.8},
      {"measurement": "Thermoflour melting curve fluorescence of Notum", "setting": "[2]; Temperature 81.5", "value": 30385.9},
      {"measurement": "Thermoflour melting curve fluorescence of Notum", "setting": "[2]; Temperature 82.5", "value": 30819.6},
      {"measurement": "Thermoflour melting curve fluorescence of Notum", "setting": "[2]; Temperature 83.5", "value": 31270.2},
      {"measurement": "Thermoflour melting curve fluorescence of Notum", "setting": "[2]; Temperature 84.5", "value": 31691.8},
      {"measurement": "Thermoflour melting curve fluorescence of Notum", "setting": "[2]; Temperature 85.5", "value": 32102.2},
      {"measurement": "Thermoflour melting curve fluorescence of Notum", "setting": "[2]; Temperature 86.5", "value": 32523.2},
      {"measurement": "Thermoflour melting curve fluorescence of Notum", "setting": "[2]; Temperature 87.5", "value": 32949.1},
      {"measurement": "Thermoflour melting curve fluorescence of Notum", "setting": "[2]; Temperature 88.5", "value": 33332.7},
      {"measurement": "Thermoflour melting curve fluorescence of Notum", "setting": "[2]; Temperature 89.5", "value": 33682.6},
      {"measurement": "Thermoflour melting curve fluorescence of Notum", "setting": "[2]; Temperature 90.5", "value": 34084.7},
      {"measurement": "Thermoflour melting curve fluorescence of Notum", "setting": "[2]; Temperature 91.5", "value": 34496.3},
      {"measurement": "Thermoflour melting curve fluorescence of Notum", "setting": "[2]; Temperature 92.5", "value": 34921.9},
      {"measurement": "Thermoflour melting curve fluorescence of Notum", "setting": "[2]; Temperature 93.5", "value": 35339.5},
      {"measurement": "Thermoflour melting curve fluorescence of Notum", "setting": "[2]; Temperature 94.5", "value": 35764.6},
      {"measurement": "Thermoflour melting curve fluorescence of Notum", "setting": "[2]; Temperature 95.5", "value": 36159.7},
      {"measurement": "Thermoflour melting curve fluorescence of Notum", "setting": "[2]; Temperature 96.5", "value": 36500.9},
      {"measurement": "Thermoflour melting curve fluorescence of Notum", "setting": "[2]; Temperature 97.5", "value": 36857},
      {"measurement": "Effect on Tm of Notum", "setting": "[2]", "value": "little effect on the Tm"},
      {"measurement": "Melting temperature (Tm) of Notum", "setting": "[2]; Notum without compounds Tm 63.6 °C", "value": 63.5, "unit": "°C"},
      {"measurement": "Binding to Notum (SPR response)", "setting": "[3]", "value": "did not observe significant responses"},
      {"measurement": "Binding to Notum (SPR response)", "setting": "[3]; listed as Paraxanthine", "value": "do not bind Notum"}
    ]}
  ]
}
